Data taken from ChEMBL document CHEMBL1127973, “A comparative molecular field analysis derived model of the binding of taxol analogues to microtubules” (Bioorg Med Chem Lett, 1994).

These molecules were tested against Tubulin (Homo sapiens) (UniProt P68371+Q9H4B7+P0DPH7+P68366+Q13509+Q71U36+P04350+Q3ZCM7+P07437+P68363+Q9BQE3+Q6PEY2+Q13885+Q9BVA1+Q9BUF5) (assay: Binding affinity to microtubules, activity expressed as ID50 of compound/ID50 of paclitaxel).
Format: protein-complex assay

Point of comparison: CC(=O)O[C@H]1C(=O)[C@@]2(C)[C@H]([C@H](OC(=O)c3ccccc3)[C@]3(O)C[C@H](OC(=O)[C@H](O)[C@@H](NC(=O)/C(C)=N/NC(=O)OC(C)(C)C)c4ccccc4)C(C)=C1C3(C)C)[C@]1(OC(C)=O)CO[C@@H]1C[C@@H]2O, ID50 ratio 14.1. Against it:
- C/C=C(\C)C(=O)N[C@@H](c1ccccc1)[C@@H](O)C(=O)O[C@H]1C[C@@]2(O)[C@@H](OC(=O)c3ccccc3)[C@@H]3[C@]4(OC(C)=O)CO[C@@H]4C[C@H](OC(=O)[C@H](O)[C@@H](O)[C@H](O)CO)[C@@]3(C)C(=O)[C@H](OC(C)=O)C(=C1C)C2(C)C — lower, 0.5
- CC(=O)O[C@H]1C(=O)[C@]2(C)[C@@H](OC(=O)c3c(F)c(F)c(N=[N+]=[N-])c(F)c3F)C[C@H]3OC[C@@]3(OC(C)=O)[C@H]2[C@H](OC(=O)c2ccccc2)[C@]2(O)C[C@H](OC(=O)[C@H](O)[C@@H](NC(=O)c3ccccc3)c3ccccc3)C(C)=C1C2(C)C — higher, > 22.4
- CC(=O)O[C@H]1C(=O)[C@@]2(C)[C@H]([C@H](OC(=O)c3ccccc3)[C@]3(O)C[C@H](OC(=O)[C@H](O)Cc4ccccc4)C(C)=C1C3(C)C)[C@]1(OC(C)=O)CO[C@@H]1C[C@@H]2O — lower, 13.2
- CC(=O)O[C@@]12CO[C@@H]1C[C@H](O)[C@@]1(C)C(=O)[C@H](O)C3=C(C)[C@@H](OC(=O)C[C@@H](O)[C@@H](NC(=O)c4ccccc4)c4ccccc4)C[C@@](O)([C@@H](OC(=O)c4ccccc4)[C@H]21)C3(C)C — higher, > 27
- C/C=C(\C)C(=O)N[C@@H](c1ccccc1)[C@@H](O)C(=O)O[C@H]1C[C@@]2(O)[C@@H](OC(=O)c3ccccc3)[C@@H]3[C@]4(OC(C)=O)CO[C@@H]4C[C@H](O)[C@@]3(C)C(=O)[C@H](O)C(=C1C)C2(C)C — lower, 5
- CC(=O)O[C@H]1C(=O)[C@@]2(C)[C@H]([C@H](OC(=O)c3ccccc3)[C@]3(O)C[C@H](OC(=O)C[C@H](NC(=O)c4ccccc4)c4ccccc4)C(C)=C1C3(C)C)[C@]1(OC(C)=O)CO[C@@H]1C[C@@H]2O — higher, 21.2
- CC(=O)O[C@H]1C(=O)[C@@]2(C)[C@H]([C@H](OC(=O)c3ccccc3)[C@]3(O)C[C@H](OC(=O)[C@H](O)[C@@H](NC(=O)C(C)(C)C)c4ccccc4)C(C)=C1C3(C)C)[C@]1(OC(C)=O)CO[C@@H]1C[C@@H]2O — lower, 2.6
- CC(=O)O[C@H]1C(=O)[C@@]2(C)[C@H]([C@H](OC(=O)c3ccccc3)[C@]3(O)C[C@H](OC(=O)[C@H](C)O)C(C)=C1C3(C)C)[C@]1(OC(C)=O)CO[C@@H]1C[C@@H]2O — lower, 6.4
- C/C=C(\C)C(=O)N[C@@H](c1ccccc1)[C@@H](O)C(=O)O[C@H]1C[C@@]2(O)[C@@H](OC(=O)c3ccccc3)[C@@H]3[C@]4(OC(C)=O)CO[C@@H]4C[C@H](O)[C@@]3(C)C(=O)[C@H](OC(C)=O)C(=C1C)C2(C)C — lower, 1.5
- CC(=O)O[C@H]1C(=O)[C@@]2(C)[C@H]([C@H](OC(=O)c3ccccc3)[C@]3(O)C[C@H](OC(=O)[C@H](O)[C@@H](NC(=O)/C(C)=N/O)c4ccccc4)C(C)=C1C3(C)C)[C@]1(OC(C)=O)CO[C@@H]1C[C@@H]2O — lower, 3.5
- CC(=O)O[C@@]12CO[C@@H]1C[C@H](OC(=O)CCCC(=O)O)[C@@]1(C)C(=O)[C@H](OC(=O)CCCC(=O)O)C3=C(C)[C@@H](OC(=O)[C@H](O)[C@@H](NC(=O)OC(C)(C)C)c4ccccc4)C[C@@](O)([C@@H](OC(=O)c4ccccc4)[C@H]21)C3(C)C — lower, 2
- CC(=O)O[C@@]12CO[C@@H]1C[C@H](O)[C@@]1(C)C(=O)[C@H](O)C3=C(C)[C@@H](OC(=O)C[C@H](NC(=O)OC(C)(C)C)c4ccccc4)C[C@@](O)([C@@H](OC(=O)c4ccccc4)[C@H]21)C3(C)C — lower, 2.3
- CC(=O)O[C@H]1C(=O)[C@@]2(C)[C@H]([C@H](OC(=O)c3ccccc3)[C@]3(O)C[C@H](OC(=O)[C@@H](O)[C@H](NC(=O)c4ccccc4)c4ccccc4)C(C)=C1C3(C)C)[C@]1(OC(C)=O)CO[C@@H]1C[C@@H]2O — lower, 4.5
- CC(=O)O[C@H]1C(=O)[C@]2(C)[C@@H](OC(C)=O)C[C@H]3OC[C@@]3(OC(C)=O)[C@H]2[C@H](OC(=O)c2ccccc2)[C@]2(O)C[C@H](OC(=O)[C@H](O)[C@@H](NC(=O)c3ccccc3)c3ccccc3)C(C)=C1C2(C)C — lower, 2
- CC(=O)O[C@H]1C(=O)[C@@]2(C)[C@H]([C@H](OC(=O)c3ccccc3)[C@]3(O)C[C@H](OC(=O)[C@H](O)[C@@H](NC(=O)c4ccco4)c4ccccc4)C(C)=C1C3(C)C)[C@]1(OC(C)=O)CO[C@@H]1C[C@@H]2O — lower, 0.8
- CC(=O)O[C@H]1C(=O)[C@@]2(C)[C@H]([C@H](OC(=O)c3ccccc3)[C@]3(O)C[C@H](OC(=O)[C@H](O)[C@@H](NC(=O)c4ccccc4)c4cccnc4)C(C)=C1C3(C)C)[C@]1(OC(C)=O)CO[C@@H]1C[C@@H]2O — lower, 0.5
- CC(=O)O[C@H]1C(=O)[C@@]2(C)[C@H]([C@H](OC(=O)c3ccccc3)[C@]3(O)C[C@H](OC(=O)[C@H](O)[C@@H](NC(=O)OC(C)(C)C)c4ccco4)C(C)=C1C3(C)C)[C@]1(OC(C)=O)CO[C@@H]1C[C@@H]2O — lower, 1.7
- CCCCCC(=O)N[C@@H](c1ccccc1)[C@@H](O)C(=O)O[C@H]1C[C@@]2(O)[C@@H](OC(=O)c3ccccc3)[C@@H]3[C@]4(OC(C)=O)CO[C@@H]4C[C@H](O)[C@@]3(C)C(=O)[C@H](OC(C)=O)C(=C1C)C2(C)C — lower, 0.4
- CC(=O)O[C@H]1C(=O)[C@@]2(C)[C@H]([C@H](OC(=O)c3ccccc3)[C@]3(O)C[C@H](OC(=O)[C@H](O)[C@@H](NC(=O)c4ccoc4)c4ccccc4)C(C)=C1C3(C)C)[C@]1(OC(C)=O)CO[C@@H]1C[C@@H]2O — lower, 0.4
- CC(=O)O[C@H]1C(=O)[C@@]2(C)[C@H]([C@H](OC(=O)c3ccccc3)[C@]3(O)C[C@H](OC(=O)[C@H](O)[C@@H](NC(=O)c4ccccc4C)c4ccccc4)C(C)=C1C3(C)C)[C@]1(OC(C)=O)CO[C@@H]1C[C@@H]2O — lower, 1.9
- CC(=O)O[C@@]12CO[C@@H]1C[C@H](O)[C@@]1(C)C(=O)CC3=C(C)[C@@H](OC(=O)[C@H](O)[C@@H](NC(=O)c4ccccc4)c4ccccc4)C[C@@](O)([C@@H](OC(=O)c4ccccc4)[C@H]21)C3(C)C (stereo in doubt; 19) — higher, 106
- CC(=O)O[C@H]1C(=O)[C@@]2(C)[C@H]([C@H](OC(=O)c3ccccc3)[C@]3(O)C[C@H](OC(=O)[C@H](O)[C@@H](NC(=O)c4ccccc4)c4ccco4)C(C)=C1C3(C)C)[C@]1(OC(C)=O)CO[C@@H]1C[C@@H]2O — lower, 0.9
- CC(=O)O[C@@]12CO[C@@H]1C[C@H](O)[C@@]1(C)C(=O)[C@H](O)C3=C(C)[C@@H](OC(=O)[C@H](O)[C@@H](NC(=O)OC(C)(C)C)c4ccccc4)C[C@@](O)([C@@H](OC(=O)c4ccccc4)[C@H]21)C3(C)C (stereo in doubt; 40) — lower, 0.5
- CC(=O)O[C@H]1C(=O)[C@@]2(C)[C@H]([C@H](OC(=O)c3ccccc3)[C@]3(O)C[C@H](OC(=O)[C@H](O)[C@@H](NC(=O)c4ccccc4)c4ccccn4)C(C)=C1C3(C)C)[C@]1(OC(C)=O)CO[C@@H]1C[C@@H]2O — lower, 0.7
- CC(=O)O[C@@]12CO[C@@H]1C[C@H](O)[C@@]1(C)C(=O)CC3=C(C)[C@@H](OC(=O)[C@H](O)[C@@H](NC(=O)c4ccccc4)c4ccccc4)C[C@@](O)([C@@H](OC(=O)c4ccccc4)[C@H]21)C3(C)C (stereo in doubt; 17) — higher, 143
- CC(=O)O[C@H]1C(=O)[C@@]2(C)[C@H]([C@H](OC(=O)c3ccccc3)[C@]3(O)C[C@H](OC(=O)C[C@@H](NC(=O)OC(C)(C)C)c4ccccc4)C(C)=C1C3(C)C)[C@]1(OC(C)=O)CO[C@@H]1C[C@@H]2O — lower, 4.1
